{"source": "patent US4956384A", "about": "“1,4:3,6-dianhydrosorbitol 2-mononitrate and 5-mononitrate esters and pharmaceutical compositions therefrom” (Chiesi Farmaceutici S.p.A., priority 1987, dated 1990)", "key": {"[1]": {"system": "helicoidal strips of rabbit aorta", "assay": "In vitro vasodilating activity: inhibition of K+-induced contraction of aorta strips", "format": "cell-based, male albino rabbits (New Zealand strain)", "method": "Aorta strips from male albino rabbits (New Zealand strain), prepared according to the method by Furchgott and Bhadrakom--J. Pharm. Exp. Ther. 108, 129 (1953), were contracted with a solution enriched in K^+ (100 mM). When the contraction was stable, the test compounds were added, according to the method of cumulative dosages.\nThe responses were isometrically recorded and expressed as contraction percentage inhibition. The concentration causing 50% inhibition (ED50) was calculated on the basis of the equation of the linear tract of the dose-response curves. The obtained results expressed as ED50 values are reported in tables I and II (which respectively relate to the compounds substituted at the 2-and and 5-positions), together with the values of the octanol/water partition coefficient. The potency ratio for each compound, in comparison with the starting mononitrate, IS-2-N and IS-5-N, is reported in the same tables."}, "[2]": {"assay": "octanol/water partition coefficient", "format": "physicochemical"}, "[3]": {"assay": "Hypotensive activity in anesthetized rats (mean arterious pressure, i.v. bolus)", "format": "in vivo, male albino rats (D strain, Charles River)", "method": "Male albino rats were used (D strain, Charles River) anesthetized with a starting dose of sodium pentobarbital of 60 mg/kg i.p. and thermoregulated at 37° C. Mean arterious pressure was monitored at right carotidis arteria, while the compounds were administered as a bolus into the jugular vein, at constant volumes of 0.3 and 1 ml/kg.\nThe results, expressed as ED20, dose causing a 20% reduction in the mean arterious pressure (graphically calculated) are expressed in table III, relating to compounds substituted at the 2- and 5-positions."}, "[4]": {"assay": "Arterious pressure in the anesthetized rabbit, in vein administration", "format": "in vivo", "from_the_text": "The above results are confirmed also in another animal species."}}}
{"compound": "COc1cc(C(=O)O[C@H]2CO[C@H]3[C@@H]2OC[C@H]3O[N+](=O)[O-])cc(OC)c1OC", "note": "[II, 1,4:3,6-dianhydrosorbitol 2-(3,4,5-trimethoxy)-benzoate 5-nitrate]", "values": [{"measurement": "IC50", "setting": "[1]; Oryctolagus cuniculus, Table I, 2-acyl derivatives of isosorbide 5-nitrate, K+ 100 mM, read-out: ED50 (concentration causing a 50% inhibition of contraction)", "result": 2720, "unit": "nM"}, {"measurement": "Potency ratios (confidence limits)", "setting": "[1]; Table I, in comparison with isosorbide 5-nitrate", "result": "113.48 (72.30-172.85)"}, {"measurement": "Potency ratio, In vitro", "setting": "[1]; Table III, relative to IS-5-N", "result": 113}, {"measurement": "times more active than the starting mononitrate", "setting": "[1]; in vitro, II vs IS-5N, X vs IS-2N", "result": "about 110 times"}, {"measurement": "times more lipophilic than the starting mononitrate", "setting": "[2]", "result": "about 140 times"}, {"measurement": "logP", "setting": "[2]; octanol/water, Table I, 2-acyl derivatives of isosorbide 5-nitrate, read-out: Partition coeff. (octanol/H2O) (converted)", "result": 2.09}, {"measurement": "Potency ratio, In vivo", "setting": "[3]; Table III, relative to IS-5-N", "result": "≈ 79"}, {"measurement": "ED20", "setting": "[3]; iv, anesthetized rat, read-out: ED20, dose reducing by 20% the mean arterious pressure (graphically calculated)", "result": 1.9, "unit": "µmol/kg"}, {"measurement": "hypotensive activity in words", "setting": "[3]; rat", "result": "remarkable hypotensive activity in both \"in vitro\" and \"in vivo\" tests"}, {"measurement": "reduction in arterious pressure", "setting": "[4]", "result": "dose-depending reduction in arterious pressure"}, {"measurement": "strength of arterious pressure reduction higher than that of IS-2N", "setting": "[4]; vs IS-2N", "result": "about 10 times"}, {"measurement": "strength of arterious pressure reduction higher than that of IS-5N", "setting": "[4]; vs IS-5N", "result": "~100", "unit": "times"}]}
